Assay results published in PubChem BioAssay AID190 (DTP/NCI, 2004).
Where “and” joins values, the source holds several entries; their conditions need not be identical. Identical values can stand only once. Toxic doses and inconclusive results are not listed. The calls were made as follows: active = survival T/C of 150% or more; inactive = T/C below 125% in these data.

Test system: AKR/Lw mice, AKR lymphoma ip, median survival T/C
Assay: NCI In Vivo Anticancer Drug Screen. Data for tumor model Lymphoma AKR (Transplanted) (intraperitoneal) in AKR/Lw mice
Details: endpoint: median survival time, higher = longer survival
Method: The antitumor activity of compounds was measured in mice bearing transplantable tumors. Survival or tumor size were measured and the results are expressed as the measurement made in the treated group (T) divided by the measurement made in the vehicle treated control group (C). The tumor model used in this assay is Lymphoma AKR (Transplanted) (intraperitoneal) in AKR/Lw mice

Measured: T/C

NC(CSC(c1ccccc1)(c1ccccc1)c1ccccc1)C(=O)O (stereo unspecified)
inactive: dose: 0.6 mg/kg/injection, schedule: Q01DX009 (ip), vehicle: Klucel (hydroxypropylcellulose) (HPC) 111 % of control | dose: 1.2 mg/kg/injection, schedule: Q01DX009 (ip), vehicle: Klucel (hydroxypropylcellulose) (HPC) 114 % of control and 117 % of control | dose: 2.5 mg/kg/injection, schedule: Q01DX009 (ip), vehicle: Klucel (hydroxypropylcellulose) (HPC) 117 % of control | dose: 5.0 mg/kg/injection, schedule: Q01DX009 (ip), vehicle: Klucel (hydroxypropylcellulose) (HPC) 88 % of control and 120 % of control | dose: 6.0 mg/kg/injection, schedule: Q01DX009 (ip), vehicle: Klucel (hydroxypropylcellulose) (HPC) 94 % of control | dose: 6.2 mg/kg/injection, schedule: Q04DX003 (ip), vehicle: Klucel (hydroxypropylcellulose) (HPC) 108 % of control | dose: 6.25 mg/kg/injection, schedule: Q01DX009 (ip), vehicle: Klucel (hydroxypropylcellulose) (HPC) 94 % of control | dose: 10.0 mg/kg/injection, schedule: Q01DX009 (ip), vehicle: Klucel (hydroxypropylcellulose) (HPC) 102 % of control | dose: 12.0 mg/kg/injection, schedule: Q01DX009 (ip), vehicle: Klucel (hydroxypropylcellulose) (HPC) 88 % of control | dose: 12.5 mg/kg/injection, schedule: Q01DX009 (ip), vehicle: Klucel (hydroxypropylcellulose) (HPC) 94 % of control | dose: 12.5 mg/kg/injection, schedule: Q04DX003 (ip), vehicle: Klucel (hydroxypropylcellulose) (HPC) 91 % of control and 94 % of control and 102 % of control | dose: 20.0 mg/kg/injection, schedule: Q01DX009 (ip), vehicle: Klucel (hydroxypropylcellulose) (HPC) 102 % of control and 108 % of control | dose: 25.0 mg/kg/injection, schedule: Q01DX009 (ip), vehicle: Klucel (hydroxypropylcellulose) (HPC) 91 % of control and 100 % of control | dose: 25.0 mg/kg/injection, schedule: Q01DX009 (ip), vehicle: saline 94 % of control and 97 % of control and 109 % of control | dose: 25.0 mg/kg/injection, schedule: Q04DX003 (ip), vehicle: Klucel (hydroxypropylcellulose) (HPC) 94 % of control and 97 % of control | dose: 25.0 mg/kg/injection, schedule: Q04DX003 (ip), vehicle: saline 102 % of control | dose: 37.5 mg/kg/injection, schedule: Q01DX001 (ip), vehicle: saline 102 % of control and 103 % of control (2×) | dose: 50.0 mg/kg/injection, schedule: Q01DX009 (ip), vehicle: saline 105 % of control | dose: 50.0 mg/kg/injection, schedule: Q04DX003 (ip), vehicle: saline 97 % of control | dose: 75.0 mg/kg/injection, schedule: Q01DX001 (ip), vehicle: saline 95 % of control and 103 % of control and 110 % of control | dose: 100.0 mg/kg/injection, schedule: Q01DX001 (ip), vehicle: Klucel (hydroxypropylcellulose) (HPC) 97 % of control | dose: 100.0 mg/kg/injection, schedule: Q01DX001 (ip), vehicle: saline 100 % of control | dose: 100.0 mg/kg/injection, schedule: Q04DX003 (ip), vehicle: saline 91 % of control | dose: 150.0 mg/kg/injection, schedule: Q01DX001 (ip), vehicle: saline 90 % of control and 105 % of control and 106 % of control | dose: 200.0 mg/kg/injection, schedule: Q01DX001 (ip), vehicle: Klucel (hydroxypropylcellulose) (HPC) 109 % of control | dose: 400.0 mg/kg/injection, schedule: Q01DX001 (ip), vehicle: Klucel (hydroxypropylcellulose) (HPC) 118 % of control
